What was measured:
progesterone receptor = biological target: T1, progesterone receptor (Sus scrofa, UniProt D0EWS6); experiment: progesterone receptor binding inhibition ([^3 H]-progesterone, hog uterus cytosol); parameters: species or system hogs; conditions: [^3 H]-progesterone ligand, 60 min at 4° C., read-out: Inhibitory activity against progesterone receptor binding (IC50)
T1 construct: thereby preparing a cytosol containing progesterone receptor; from tissue; host or cells: hog uterus, cytosol (100,000×g supernatant)
T1 sequence (D0EWS6 1-934): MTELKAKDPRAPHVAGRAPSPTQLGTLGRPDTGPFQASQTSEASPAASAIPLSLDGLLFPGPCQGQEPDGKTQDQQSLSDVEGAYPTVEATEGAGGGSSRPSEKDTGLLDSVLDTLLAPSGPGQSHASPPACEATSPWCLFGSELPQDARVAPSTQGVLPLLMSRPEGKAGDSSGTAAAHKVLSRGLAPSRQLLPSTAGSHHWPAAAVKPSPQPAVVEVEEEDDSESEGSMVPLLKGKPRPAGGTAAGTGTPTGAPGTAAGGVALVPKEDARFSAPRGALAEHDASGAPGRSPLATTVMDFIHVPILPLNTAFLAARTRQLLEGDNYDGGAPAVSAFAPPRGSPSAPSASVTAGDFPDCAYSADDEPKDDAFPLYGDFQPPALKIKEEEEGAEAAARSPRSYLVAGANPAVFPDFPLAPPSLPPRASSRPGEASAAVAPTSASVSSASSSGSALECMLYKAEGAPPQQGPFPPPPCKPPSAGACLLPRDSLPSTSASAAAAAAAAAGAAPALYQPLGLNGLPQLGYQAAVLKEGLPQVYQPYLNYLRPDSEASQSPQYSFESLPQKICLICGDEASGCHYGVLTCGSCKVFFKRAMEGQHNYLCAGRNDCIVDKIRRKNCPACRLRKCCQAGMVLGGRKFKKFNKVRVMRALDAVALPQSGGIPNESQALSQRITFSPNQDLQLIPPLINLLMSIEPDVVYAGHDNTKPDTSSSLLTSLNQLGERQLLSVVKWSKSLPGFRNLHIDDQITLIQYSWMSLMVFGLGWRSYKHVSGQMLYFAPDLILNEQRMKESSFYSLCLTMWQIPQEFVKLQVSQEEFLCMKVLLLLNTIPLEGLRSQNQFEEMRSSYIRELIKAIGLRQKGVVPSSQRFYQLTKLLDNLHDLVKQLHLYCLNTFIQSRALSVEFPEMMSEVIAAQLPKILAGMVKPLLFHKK
Method: Uteri taken from hogs in 5 mM phosphate buffer were disrupted using Polytron homogenizer, and the resulting solution was centrifuged (100,000×g, 30 min) to separate the supernatant, thereby preparing a cytosol containing progesterone receptor. […] Then, 100 μl of a 0.5% activated carbon solution was added to the reaction solution, and the mixture was allowed to stand for 10 min and then centrifuged (2,000×g, 10 min). The radioactivity of the supernatant was measured with a liquid scintillation counter.
Separately, the radioactivity was measured in the same manner as described above, except that no test drug was added. Further, the radioactivity was measured in the same manner as described above, except that 10 μl of Medroxyprogesterone Acetate (MPA) (10 μg/ml) was added instead of the test drug. The radioactivity with no test drug added was defined as the amount of total binding of [^3 H]-progesterone to the cytosol, and the radioactivity with MPA added was defined as the amount of non-specific binding. The inhibition ratio was calculated from these measured values by the following equation to determine the binding inhibitory activity (IC50).
Inhibition ratio (%)= [formula]

[1] = Test on Toxicity upon Continuous Administration; type: in vivo; conditions: 60 mg/kg, subcutaneous, 16 week-old male SD rats (five)
Method: A homogeneous suspension of the compound, according to the present invention, prepared in Example 8 in a 0.2% aqueous methyl cellulose solution was subcutaneously administered to 16 week-old male SD rats (five rats). The dose of the compound prepared in Example 8 was 60 mg/kg.

SMILES | IC50 (progesterone receptor) | other results
CCC(=O)O[C@H]1[C@H](OC(C)=O)C=C2C=C3C(=C(C)C(=O)N3C)C[C@]2(C)[C@H]1C [Example 3, (4aR,5R,6R,7R)-7-Acetoxy-6-propionyloxy-4a,5,6,7-tetrahydro-1,3,4a,5-tetramethylbenz[f]indol-2(4H)-one] | 28 nM | 
CCCO[C@H]1[C@H](OC)C=C2C=C3C(=C(C)C(=O)N3C)C[C@]2(C)[C@H]1C [Example 36, (4aR,5R,6R,7R)-7-Methoxy-6-propoxy-4a,5,6,7-tetrahydro-1,3,4a,5-tetramethylbenz[f]indol-2(4H)-one] | 51 nM | 
CC(=O)O[C@@H]1C=C2C=C3C(=C(C)C(=O)N3C)C[C@]2(C)[C@@H](C)[C@H]1OC(=O)c1ccco1 [Example 4, (4aR,5R,6R,7R)-7-Acetoxy-6-(2-furancarbonyloxy)-4a,5,6,7-tetrahydro-1,3,4a,5-tetramethylbenz[f]indol-2(4H)-one] | 32 nM | 
CCC(=O)O[C@H]1[C@H](OC(=O)CC)C=C2C=C3C(=C(C)C(=O)N3C)C[C@]2(C)[C@H]1C [Example 8, (4aR,5R,6R,7R)-6,7-Dipropionyloxy-4a,5,6,7-tetrahydro-1,3,4a,5-tetramethylbenz[f]indol-2(4H)-one] |  | special symptoms [1]: without no special symptom; survival of rats [1]: All the rats remained survived
CS[C@@H]1C=C2C=C3C(=C(C)C(=O)N3C)C[C@]2(C)[C@@H](C)[C@H]1OC(=O)n1ccnc1 [Example 99, (4aR,5R,6R,7R)-6-(Imidazol-1-ylcarbonyloxy)-7-methylthio-4a,5,6,7-tetrahydro-1,3,4a,5-tetramethylbenz[f]indol-2(4H)-one] | 66 nM | 
CO[C@@H]1C=C2C=C3C(=C(C)C(=O)N3C)C[C@]2(C)[C@@H](C)[C@H]1OC(=O)c1cccs1 [Example 31, (4aR,5R,6R,7R)-7-Methoxy-4a,5,6,7-tetrahydro-1,3,4a,5-tetramethyl-6-(2-thiophenecarbonyloxy)benz[f]indol-2(4H)-one] | 47 nM | 
CO[C@@H]1C=C2C=C3C(=C(C)C(=O)N3C)C[C@]2(C)[C@@H](C)[C@H]1OC(C)=O [Example 25, (4aR,5R,6R,7R)-6-Acetoxy-7-methoxy-4a,5,6,7-tetrahydro-1,3,4a,5-tetramethylbenz[f]indol-2(4H)-one] | 25 nM | 
CO[C@@H]1C=C2C=C3C(=C(C)C(=O)N3C)C[C@]2(C)[C@@H](C)[C@H]1OC(=O)c1ccco1 [Example 32, (4aR,5R,6R,7R)-6-(2-Furancarbonyloxy)-7-methoxy-4a,5,6,7-tetrahydro-1,3,4a,5-tetramethylbenz[f]indol-2(4H)-one] | 27 nM | 
CCC(=O)O[C@H]1[C@H](OC)C=C2C=C3C(=C(C)C(=O)N3C)C[C@]2(C)[C@H]1C [Example 26, (4aR,5R,6R,7R)-7-Methoxy-6-propionyloxy-4a,5,6,7-tetrahydro-1,3,4a,5-tetramethylbenz[f]indol-2(4H)-one] | 17 nM | 
CCCNC(=O)O[C@H]1CC=C2C=C3C(=C(C)C(=O)N3C)C[C@]2(C)[C@H]1C [Example 116, (4aR,5R,6S)-6-Propylcarbamoyloxy-4a,5,6,7-tetrahydro-1,3,4a,5-tetramethylbenz[f]indol-2(4H)-one] | 19 nM | 

More lines, in order of falling IC50 (progesterone receptor), values ahead:

IC50 (progesterone receptor) | SMILES | other results
164 nM | CCS[C@@H]1C=C2C=C3C(=C(C)C(=O)N3C)C[C@]2(C)[C@@H](C)[C@H]1OC(=O)CC [Example 101, (4aR,5R,6R,7R)-7-Ethylthio-6-propionyloxy-4a,5,6,7-tetrahydro-1,3,4a,5-tetramethylbenz[f]indol-2(4H)-one] | 
156 nM | CCCNC(=O)O[C@H]1[C@H](SCC)C=C2C=C3C(=C(C)C(=O)N3C)C[C@]2(C)[C@H]1C [Example 107, (4aR,5R,6R,7R)-7-Ethylthio-6-propylcarbamoyloxy-4a,5,6,7-tetrahydro-1,3,4a,5-tetramethylbenz[f]indol-2(4H)-one] | 
155 nM | CCS[C@@H]1C=C2C=C3C(=C(C)C(=O)N3C)C[C@]2(C)[C@@H](C)[C@H]1OC(=O)N1CCCC1 [Example 108, (4aR,5R,6R,7R)-7-Ethylthio-6-(pyrrolidin-1-ylcarbonyloxy)-4a,5,6,7-tetrahydro-1,3,4a,5-tetramethylbenz[f]indol-2(4H)-one] | 
137 nM | CCS[C@@H]1C=C2C=C3C(=C(C)C(=O)N3C)C[C@]2(C)[C@@H](C)[C@H]1OC(=O)n1ccnc1 [Example 106, (4aR,5R,6R,7R)-7-Ethylthio-6-(imidazol-1-ylcarbonyloxy)-4a,5,6,7-tetrahydro-1,3,4a,5-tetramethylbenz[f]indol-2(4H)-one] | 
119 nM | CCS[C@@H]1C=C2C=C3C(=C(C)C(=O)N3C)C[C@]2(C)[C@@H](C)[C@H]1O [Example 100, (4aR,5R,6R,7R)-7-Ethylthio-6-hydroxy-4a,5,6,7-tetrahydro-1,3,4a,5-tetramethrlbenz[f]indol-2(4H)-one] | 
99 nM | CCC(=O)O[C@H]1CC=C2C=C3C(=C(C)C(=O)N3C)C[C@]2(C)[C@H]1C [Example 113, (4aR,5R,6S)-6-Propionyloxy-4a,5,6,7-tetrahydro-1,3,4a,5-tetramethylbenz[f]indol-2(4H)-one] | 
64 nM | CCC(=O)O[C@H]1[C@H](SC)C=C2C=C3C(=C(C)C(=O)N3C)C[C@]2(C)[C@H]1C [Example 97, (4aR,5R,6R,7R)-7-Methylthio-6-propionyloxy-4a,5,6,7-tetrahydro-1,3,4a,5-tetramethylbenz[f]indol-2(4H)-one] | 
44 nM | C=CCO[C@H]1[C@H](OC)C=C2C=C3C(=C(C)C(=O)N3C)C[C@]2(C)[C@H]1C [Example 41, (4aR,5R,6R,7R)-7-Methoxy-6-(2-propenyloxy)-4a,5,6,7-tetrahydro-1,3,4a,5-tetramethylbenz[f]indol-2(4H)-one] | 
42 nM | CO[C@H]1[C@H](OC)C=C2C=C3C(=C(C)C(=O)N3C)C[C@]2(C)[C@H]1C [Example 34, (4aR,5R,6R,7R)-6,7-Dimethoxy-4a,5,6,7-tetrahydro-1,3,4a,5-tetramethylbenz[f]indol-2(4H)-one] | 
36 nM | CCO[C@H]1[C@H](OC)C=C2C=C3C(=C(C)C(=O)N3C)C[C@]2(C)[C@H]1C [Example 35, (4aR,5R,6R,7R)-6-Ethoxy-7-methoxy-4a,5,6,7-tetrahydro-1,3,4a,5-tetramethylbenz[f]indol-2(4H)-one] | 
31 nM | CC1=C2C[C@@]3(C)C(=CC[C@H](OC(=O)N4CCCC4)[C@@H]3C)C=C2N(C)C1=O [Example 117, (4aR,5R,6S)-6-(Pyrrolidin-1-ylcarbonyloxy)-4a,5,6,7-tetrahydro-1,3,4a,5-tetramethylbenz[f]indol-2(4H)-one] | 
22 nM | CC1=C2C[C@@]3(C)C(=CC[C@H](OC(=O)n4ccnc4)[C@@H]3C)C=C2N(C)C1=O [Example 115, (4aR,5R,6S)-6-(Imidazol-1-ylcarbonyloxy)-4a,5,6,7-tetrahydro-1,3,4a,5-tetramethylbenz[f]indol-2(4H)-one] | 

Source: patent US6077840A, “Tetrahydrobenzindolone derivatives” (Meiji Seika Kaisha, Ltd., priority 1996, dated 2000)
